Experimental data taken from patent US20250101436A1, “APTAMERS AND SMALL MOLECULE LIGANDS” (MeiraGTx UK II Limited, priority 2021, published 2025).

System: N5-12G6 riboswitch
Assay: Firefly luciferase assay, N5-12G6 riboswitch in HEK293 cells
Conditions: for fold induction at 2 µM / fold induction at 25 µM / fold induction at 3.3 µM: Homo sapiens; for fold induction at 2 µM: HEK293, read-out: Fold induction 2 μM (HEK), 12G6 riboswitch, luciferase, HEK293, 2 μM; for Fold induction 2 μM (HEK) / regulation of luciferase expression (FIG. 4e): 12G6 riboswitch; for Fold induction 2 μM (HEK): luciferase, HEK293, 2 μM; for regulation of luciferase expression (FIG. 4e): HEK293; for fold induction at 25 µM: HEK293, read-out: Fold induction 25 μM (HEK), 12G6 riboswitch, luciferase, HEK293, 25 μM; for fold induction at 3.3 µM: HEK293, read-out: Fold induction 3.3 μM (HEK), 12G6 riboswitch, luciferase, HEK293, 3.3 μM
Method: Transfection: 3.5×10^4 human embryonic kidney (HEK) 293 cells were plated in a 96-well flat bottom plate the day before transfection. Plasmid DNA (500 ng) was added to a tube or a 96-well U-bottom plate. Separately, TransIT-293 reagent (Mirus; 1.4 L) was added to 50 μL Optimum I media (Life Technologies) and allowed to sit for 5 minutes at room temperature (RT). Then, 50 μL of this diluted transfection reagent was added to the DNA, mixed, and incubated at RT for 20 min. Finally, 7 μL of this solution was added to a well of cells in the 96-well plate. Four hours after transfection, medium containing transfection solution was replaced by medium with either TPP or fursultiamine as aptamer ligands.
Firefly luciferase assay of cultured cells: Twenty-four hours after media change, plates were removed from the incubator, and equilibrated to RT for several minutes on a lab bench, then aspirated. Glo-lysis buffer (Promega, 100 μL, RT) was added, and the plates allowed to remain at RT for at least 5 minutes. Then, the well contents were mixed by 50 μL trituration, and 20 μL of each sample was mixed with 20 μL of bright-glo reagent (Promega) that had been diluted to 10% in glo-lysis buffer. 96 wells were spaced on an opaque white 384-well plate. Following a 5 min incubation at RT, luminescence was measured using a Tecan machine with 500 ms read time. The luciferase activity was expressed as mean arbitrary light units (ALU)±S.D., and fold induction was calculated as the quotient of the luciferase activity obtained from cells with TPP or analog compound treatment divided by the luciferase activity obtained from cells without TPP or analog compound treatment.

SMILES	fold induction at 2 µM	also measured
C[C@@H]1CNCCN1c1ccncc1NCc1cc(F)c2nccnc2c1 [compound 065, (R)—N-((8-fluoroquinoxalin-6-yl)methyl)-4-(2-methylpiperazin-1-yl)pyridin-3-amine]	21.7	–
Cc1cc(N2CCNCC2)c(NCc2ccc3nccnc3c2)cn1 [compound 118, 6-methyl-4-(piperazin-1-yl)-N-(quinoxalin-6-ylmethyl)pyridin-3-amine]	26.2	–
Fc1nccc(N2CCNCC2)c1NCc1ccc2nccnc2c1 [compound 051, 2-fluoro-4-(piperazin-1-yl)-N-(quinoxalin-6-ylmethyl)pyridin-3-amine]	2.7	–
Cc1cncc(NCc2ccc3nccnc3c2)c1OC1CNC1 [compound 113, 4-(azetidin-3-yloxy)-5-methyl-N-(quinoxalin-6-ylmethyl)pyridin-3-amine]	31.9	–
Fc1cc(CNc2cncc(Cl)c2N2CCNCC2)cc2nccnc12 [compound 053, 5-chloro-N-((8-fluoroquinoxalin-6-yl)methyl)-4-(piperazin-1-yl)pyridin-3-amine]	–	Fold induction 2 μM (HEK): 16.8 fold
Fc1c(CNc2cnccc2N2CCNCC2)ccc2nccnc12 [compound 067, N-((5-fluoroquinoxalin-6-yl)methyl)-4-(piperazin-1-yl)pyridin-3-amine]	3.4	–
Fc1cncc(NCc2ccc3nccnc3c2)c1N1CCNCC1 [compound 073, 5-fluoro-4-(piperazin-1-yl)-N-(quinoxalin-6-ylmethyl)pyridin-3-amine]	43.9	–
Clc1cc(CNc2cnccc2O[C@@H]2CCNC2)cc2nccnc12 [compound 106, (R)—N-((8-chloroquinoxalin-6-yl)methyl)-4-(pyrrolidin-3-yloxy)pyridin-3-amine]	22.2	–
Fc1cc(CNc2cnccc2N2CCNCC2)cc2nccnc12 [compound 012, N-((8-Fluoroquinoxalin-6-yl)methyl)-4-(piperazin-1-yl)pyridin-3-amine]	–	regulation of luciferase expression (FIG. 4e): regulate expression in a dose-dependent fashion; fold induction at 25 µM: 383
Clc1cncc(NCc2ccc3nccnc3c2)c1N1CCCNCC1 [compound 093, 5-chloro-4-(1,4-diazepan-1-yl)-N-(quinoxalin-6-ylmethyl)pyridin-3-amine]	30.7	–
C[C@H]1CNCCN1c1ccncc1NCc1cc2nccnc2cc1Cl [compound 063, (S)—N-((7-chloroquinoxalin-6-yl)methyl)-4-(2-methylpiperazin-1-yl)pyridin-3-amine]	2.7	–
C[C@@H]1CNCCN1c1ccncc1NCc1cc(Cl)c2nccnc2c1 [compound 066, (R)—N-((8-chloroquinoxalin-6-yl)methyl)-4-(2-methylpiperazin-1-yl)pyridin-3-amine]	2	–
CC1CN(c2ccncc2NCc2ccc3nccnc3c2)CCN1 (stereo not drawn) [compound 016, 4-(3-Methylpiperazin-1-yl)-N-(quinoxalin-6-ylmethyl)pyridin-3-amine]	–	regulation of luciferase expression (FIG. 4e): regulate expression in a dose-dependent fashion; fold induction at 25 µM: 287
c1cc(O[C@@H]2CCNC2)c(NCc2ccc3nccnc3c2)cn1 [compound 021, (R)-4-(pyrrolidin-3-yloxy)-N-(quinoxalin-6-ylmethyl)pyridin-3-amine]	68.4	fold induction at 3.3 µM: 62
Cc1cncc(NCc2ccc3nccnc3c2)c1O[C@@H]1CCNC1 [compound 111, (R)-5-methyl-4-(pyrrolidin-3-yloxy)-N-(quinoxalin-6-ylmethyl)pyridin-3-amine]	74	–
Cc1c(CNc2cnccc2N2CCNCC2)cc2nccnc2c1C [compound 070, N-((7,8-dimethylquinoxalin-6-yl)methyl)-4-(piperazin-1-yl)pyridin-3-amine]	2.9	–
FC(F)(F)c1cc(CNc2cnccc2O[C@@H]2CCNC2)cc2nccnc12 [compound 124, (R)-4-(pyrrolidin-3-yloxy)-N-((8-(trifluoromethyl)quinoxalin-6-yl)methyl)pyridin-3-amine]	3	–
Cc1cncc(NCc2ccc3nccnc3c2)c1N1CCCNCC1 [compound 094, 4-(1,4-diazepan-1-yl)-5-methyl-N-(quinoxalin-6-ylmethyl)pyridin-3-amine]	35.1	–
C[C@H]1CN(c2ccncc2NCc2cc(Cl)c3nccnc3c2)CCN1 [compound 101, (S)—N-((8-chloroquinoxalin-6-yl)methyl)-4-(3-methylpiperazin-1-yl)pyridin-3-amine]	2.2	–
Fc1cncc(NCc2cc3nccnc3cc2Cl)c1N1CCNCC1 [compound 083, N-((7-chloroquinoxalin-6-yl)methyl)-5-fluoro-4-(piperazin-1-yl)pyridin-3-amine]	12.8	–
Clc1cc2nccnc2cc1CNc1cnccc1N1CCCNCC1 [compound 091, N-((7-chloroquinoxalin-6-yl)methyl)-4-(1,4-diazepan-1-yl)pyridin-3-amine]	28.4	–

SMILES	fold induction at 2 µM	also measured
c1cc(N2CC3(CNC3)C2)c(NCc2ccc3nccnc3c2)cn1 [compound 046, N-(quinoxalin-6-ylmethyl)-4-(2,6-diazaspiro[3.3]heptan-2-yl)pyridin-3-amine]	1.6	–
COc1cc2nccnc2cc1CNc1cnccc1N1CCNCC1 [compound 072, N-((7-methoxyquinoxalin-6-yl)methyl)-4-(piperazin-1-yl)pyridin-3-amine]	19.6	–
FC(F)(F)C1CNCCN1c1ccncc1NCc1ccc2nccnc2c1 (stereo not drawn) [compound 037, N-(quinoxalin-6-ylmethyl)-4-(2-(trifluoromethyl)piperazin-1-yl)pyridin-3-amine]	–	fold induction at 25 µM: 6.1
Clc1cc(CNc2cnccc2N2CCCNCC2)cc2nccnc12 [compound 089, N-((8-chloroquinoxalin-6-yl)methyl)-4-(1,4-diazepan-1-yl)pyridin-3-amine]	4.8	–
Cc1cncc(NCc2cc(F)c3nccnc3c2)c1N1CCNCC1 [compound 084, N-((8-fluoroquinoxalin-6-yl)methyl)-5-methyl-4-(piperazin-1-yl)pyridin-3-amine]	66.4	–
Fc1cc2nccnc2cc1CNc1cnccc1O[C@@H]1CCNC1 [compound 107, (R)—N-((7-fluoroquinoxalin-6-yl)methyl)-4-(pyrrolidin-3-yloxy)pyridin-3-amine]	48.7	–
C[C@@H]1CN(c2ccncc2NCc2ccc3nccnc3c2)CCN1 [compound 043, (R)-4-(3-methylpiperazin-1-yl)-N-(quinoxalin-6-ylmethyl)pyridin-3-amine]	–	fold induction at 3.3 µM: 31
C[C@H]1CN(c2c(F)cncc2NCc2ccc3nccnc3c2)CCN1 [compound 103, (S)-5-fluoro-4-(3-methylpiperazin-1-yl)-N-(quinoxalin-6-ylmethyl)pyridin-3-amine]	23.3	–
Cc1cncc(NCc2cc3nccnc3cc2F)c1N1CCNCC1 [compound 086, N-((7-fluoroquinoxalin-6-yl)methyl)-5-methyl-4-(piperazin-1-yl)pyridin-3-amine]	17.3	–
COc1cncc(NCc2ccc3nccnc3c2)c1N1CCNCC1 [compound 075, 5-methoxy-4-(piperazin-1-yl)-N-(quinoxalin-6-ylmethyl)pyridin-3-amine]	18.6	–
Cc1cncc(NCc2cc3nccnc3cc2Cl)c1N1CCNCC1 [compound 087, N-((7-chloroquinoxalin-6-yl)methyl)-5-methyl-4-(piperazin-1-yl)pyridin-3-amine]	20.9	–
COc1cc(N2CCNCC2)c(NCc2ccc3nccnc3c2)cn1 [compound 116, 6-methoxy-4-(piperazin-1-yl)-N-(quinoxalin-6-ylmethyl)pyridin-3-amine]	50	–
Fc1cc(CNc2cnccc2O[C@@H]2CCNC2)cc2nccnc12 [compound 105, (R)—N-((8-fluoroquinoxalin-6-yl)methyl)-4-(pyrrolidin-3-yloxy)pyridin-3-amine]	37.7	–
Fc1cc(CNc2cncc(Cl)c2N2CCNCC2)cc2nccnc12 [compound 077, 5-chloro-N-((8-fluoroquinoxalin-6-yl)methyl)-4-(piperazin-1-yl)pyridin-3-amine]	–	Fold induction 2 μM (HEK): 43.5 fold
Cc1cncc(NCc2ccc3nccnc3c2)c1N1CCN[C@@H](C)C1 [compound 104, (S)-5-methyl-4-(3-methylpiperazin-1-yl)-N-(quinoxalin-6-ylmethyl)pyridin-3-amine]	33.3	–
FC(F)c1cncc(NCc2ccc3nccnc3c2)c1N1CCNCC1 [compound 076, 5-(difluoromethyl)-4-(piperazin-1-yl)-N-(quinoxalin-6-ylmethyl)pyridin-3-amine]	117	–
Fc1cc(CNc2cncc(Cl)c2O[C@@H]2CCNC2)cc2nccnc12 [compound 119, (R)-5-chloro-N-((8-fluoroquinoxalin-6-yl)methyl)-4-(pyrrolidin-3-yloxy)pyridin-3-amine]	32.5	–
c1cc(OC2CCNCC2)c(NCc2ccc3nccnc3c2)cn1 [compound 045, 4-(piperidin-4-yloxy)-N-(quinoxalin-6-ylmethyl)pyridin-3-amine]	12	–
Fc1cc(N2CCNCC2)c(NCc2ccc3nccnc3c2)cn1 [compound 024, 6-Fluoro-4-(piperazin-1-yl)-N-(quinoxalin-6-ylmethyl)pyridin-3-amine]	35.1	–
NC1CCN(c2ccncc2NCc2ccc3nccnc3c2)CC1 [compound 033, 4-(4-aminopiperidin-1-yl)-N-(quinoxalin-6-ylmethyl)pyridin-3-amine]	–	fold induction at 25 µM: 7.8
FC(F)(F)C1CN(c2ccncc2NCc2ccc3nccnc3c2)CCN1 (stereo not drawn) [compound 036, N-(quinoxalin-6-ylmethyl)-4-(3-(trifluoromethyl)piperazin-1-yl)pyridin-3-amine]	–	fold induction at 25 µM: 8.2
